Data: ChEMBL document CHEMBL5042539, “Structure-Guided Discovery of the Novel Covalent Allosteric Site and Covalent Inhibitors of Fructose-1,6-Bisphosphate Aldolase to Overcome the Azole Resistance of Candidiasis” (J Med Chem, 2022)
≈ marks a conversion by molar mass, not a printed value. Calls of active or inactive are those of the source. The rule behind the calls is not given here.

Legend:
[1] = Inhibition of wild type Candida albicans Fructose-1,6-Bisphosphate Aldolase transfected in Escherichia coli BL21 (DE3) incubated for 3 mins in presence of NADH by spectrophotometric analysis
[2] = Inhibition of Candida albicans Fructose-1,6-Bisphosphate Aldolase C292S mutant transfected in Escherichia coli BL21 (DE3) incubated for 3 mins in presence of NADH by spectrophotometric analysis
[3] = Inhibition of Candida albicans Fructose-1,6-Bisphosphate Aldolase C157S mutant transfected in Escherichia coli BL21 (DE3) incubated for 3 mins in presence of NADH by spectrophotometric analysis
Candida albicans [4] = experiment: Selectivity ratio of IC50 for inhibition of Candida albicans Fructose-1,6-Bisphosphate Aldolase C292S mutant to IC50 for inhibition of wild type Candida albicans Fructose-1,6-Bisphosphate Aldolase
[5] = Inhibition of Candida albicans Fructose-1,6-Bisphosphate Aldolase C111S mutant transfected in Escherichia coli BL21 (DE3) incubated for 3 mins in presence of NADH by spectrophotometric analysis
Candida albicans [6] = experiment: Inhibition of wild type Candida albicans Fructose-1,6-Bisphosphate Aldolase transfected in Escherichia coli BL21 (DE3) at 50 uM incubated for 3 mins in presence of NADH by spectrophotometric analysis relative to control
Candida albicans [7] = experiment: Antifungal activity against Candida albicans SC5314 incubated for 48 hrs by CLSI based broth microdilution method; assay type: functional
Candida albicans [8] = experiment: Antibiofilm activity against azole resistant Candida albicans 0304103 assessed as inhibition of biofilm formation by XTT assay; assay type: functional, organism-based; settings: dose 0-64 µg/ml
Candida albicans [9] = experiment: Antifungal activity against fluconazole resistant Candida albicans 904 incubated for 48 hrs by CLSI based broth microdilution method; assay type: functional
Candida albicans [10] = experiment: Antifungal activity against fluconazole resistant Candida albicans 103 incubated for 48 hrs by CLSI based broth microdilution method; assay type: functional
Candida albicans [11] = experiment: Antifungal activity against fluconazole resistant Candida albicans 7781 incubated for 48 hrs by CLSI based broth microdilution method; assay type: functional
Candida albicans [12] = experiment: Antifungal activity against azole-resistant Candida albicans 030410 assessed as inhibition of fungal filamentation by measuring reduction in yeast-hypha transition at 32 ug/ml by microscopic analysis; assay type: functional, organism-based; settings: dose 32.0 µg/ml
[13] = Cytotoxicity against human HaCaT cells; assay type: toxicity, cell-based
Candida albicans [14] = experiment: Binding affinity to Candida albicans Fructose-1,6-Bisphosphate Aldolase assessed as Kinact incubated for 12 to 40 mins by NADH-linked enzymatic assay; settings: time 12-40 min
Candida albicans [15] = experiment: Binding affinity to Candida albicans Fructose-1,6-Bisphosphate Aldolase assessed as ratio of kinact/Ki incubated for 12 to 40 mins by NADH-linked enzymatic assay; settings: time 12-40 min
[16] = Binding affinity to Candida albicans Fructose-1,6-Bisphosphate Aldolase assessed as inhibition constant incubated for 12 to 40 mins by NADH-linked enzymatic assay
Candida albicans [17] = experiment: Inhibition of wild type Candida albicans Fructose-1,6-Bisphosphate Aldolase transfected in Escherichia coli BL21 (DE3) at 100 uM incubated for 3 mins in presence of NADH by spectrophotometric analysis relative to control

Row | SMILES | IC50 [1] [nM] | MIC80 (Candida albicans [7]) [µg/mL] | MIC80 (Candida albicans [9]) [µg/mL] | MIC80 (Candida albicans [10]) [µg/mL] | MIC80 (Candida albicans [11]) [µg/mL] | other results
1 | O=c1c2ccccc2[se]n1-c1ccc(N2CCOCC2)cc1 | 130 |  |  |  |  | 
2 | O=c1c2ccccc2[se]n1-c1nncs1 | 155 |  |  |  |  | IC50 [2]: 1750 nM; IC50 [3]: 227 nM; Ratio IC50 (Candida albicans [4]): 11.3; IC50 [5]: 303 nM
3 | O=c1c2ccccc2sn1S(=O)(=O)c1ccccc1 | > 50000 |  |  |  |  | inhibition (Candida albicans [6]): < 50%
4 | O=C(c1ccccc1)c1ccc(-n2[se]c3ccccc3c2=O)cc1 | 31 | 4 (≈ 10.6 µM) | 4 (≈ 10.6 µM) | 4 (≈ 10.6 µM) | 4 (≈ 10.6 µM) | Activity (Candida albicans [8]): Dose-Dependent Effect; Activity (Candida albicans [12]): Active
5 | Cn1sc(=O)n(Cc2ccccc2)c1=O |  |  |  |  |  | inhibition (Candida albicans [6]): 53.7%
6 | Nc1ccc(-n2[se]c3ccccc3c2=O)cc1 | 82.3 | 8 (≈ 27.7 µM) | 8 (≈ 27.7 µM) | 8 (≈ 27.7 µM) | 8 (≈ 27.7 µM) | IC50 [13]: > 32 µM; Kinact (Candida albicans [14]): 0.00199 s⁻¹; Ratio (Candida albicans [15]): 3560 M⁻¹ s⁻¹; Ki [16]: 559 nM
7 | O=C(O)c1ccc(-n2[se]c3ccccc3c2=O)cc1 | 44.5 | 64 (≈ 201 µM) | 64 (≈ 201 µM) | 64 (≈ 201 µM) | 64 (≈ 201 µM) | 
8 | COC(=O)/C=C/C(=O)OC |  |  |  |  |  | inhibition (Candida albicans [6]): 0.58%
9 | O=C(NC1CCCCC1)n1sc2ccccc2c1=O | 1110 |  |  |  |  | 
10 | O=c1c2ccccc2[se]n1-c1ccc(-n2cncn2)cc1 | 38 | 8 (≈ 23.4 µM) | 4 (≈ 11.7 µM) | 8 (≈ 23.4 µM) | 8 (≈ 23.4 µM) | IC50 [13]: > 32 µM; Kinact (Candida albicans [14]): 0.00506 s⁻¹; Ratio (Candida albicans [15]): 10.4 M⁻¹ s⁻¹; Ki [16]: 486 nM
11 | O=C1c2ccccc2CN1c1ccccc1 | > 100000 | > 64 | > 64 | > 64 | > 64 | inhibition (Candida albicans [17]): < 50%
12 | O=c1c2ccccc2[se]n1-c1ccc(-c2ccccc2)cc1 | 60 | 32 (≈ 91.4 µM) | 64 (≈ 183 µM) | 64 (≈ 183 µM) | 64 (≈ 183 µM) | 
13 | O=c1c2ccccc2[se]n1-c1ccc(-n2ccnc2)cc1 | 45.8 | 4 (≈ 11.8 µM) | 4 (≈ 11.8 µM) | 4 (≈ 11.8 µM) | 4 (≈ 11.8 µM) | Activity (Candida albicans [8]): Dose-Dependent Effect; Activity (Candida albicans [12]): Active
14 | CCCCCCNC(=O)n1cc(F)c(=O)[nH]c1=O |  |  |  |  |  | inhibition (Candida albicans [6]): 62.2%
15 | COc1ccc(-n2[se]c3ccccc3c2=O)cc1 | 91 | 4 (≈ 13.1 µM) | 4 (≈ 13.1 µM) | 4 (≈ 13.1 µM) | 4 (≈ 13.1 µM) | 
16 | O=c1c2ccccc2[se]n1-c1ccc(C(F)(F)F)cc1 | 13 | 4 (≈ 11.7 µM) | 8 (≈ 23.4 µM) | 4 (≈ 11.7 µM) | 4 (≈ 11.7 µM) | IC50 [13]: > 32 µM; Kinact (Candida albicans [14]): 0.00092 s⁻¹; Ratio (Candida albicans [15]): 15.9 M⁻¹ s⁻¹; Ki [16]: 58 nM
17 | COC(=O)c1ccc(-n2[se]c3ccccc3c2=O)cc1 | 120 | 8 (≈ 24.1 µM) | 8 (≈ 24.1 µM) | 4 (≈ 12 µM) | 8 (≈ 24.1 µM) | 
18 | O=C(NCc1ccccc1)n1sc2ccccc2c1=O | 370 |  |  |  |  | 
19 | CCc1ccc(-n2[se]c3ccccc3c2=O)cc1 | 92 | 4 (≈ 13.2 µM) | 4 (≈ 13.2 µM) | 1 (≈ 3.31 µM) | 2 (≈ 6.62 µM) | IC50 [13]: > 32 µM; Activity (Candida albicans [8]): Dose-Dependent Effect; Activity (Candida albicans [12]): Active
20 | CCCCc1ccc(-n2[se]c3ccccc3c2=O)cc1 | 100 | 8 (≈ 24.2 µM) | 8 (≈ 24.2 µM) | 4 (≈ 12.1 µM) | 4 (≈ 12.1 µM) | 
21 | C[C@@H]1O[C@@H]1P(=O)(O)O |  |  |  |  |  | inhibition (Candida albicans [6]): 0.32%
22 | CC(=O)Nc1ccc(S(=O)(=O)n2sc3ccccc3c2=O)cc1 | > 50000 |  |  |  |  | inhibition (Candida albicans [6]): < 50%
23 | CCN(CC)C(=S)SSC(=S)N(CC)CC |  |  |  |  |  | inhibition (Candida albicans [6]): 83%
24 | CCCCNC(=O)Nc1ccc(-n2[se]c3ccccc3c2=O)cc1 | 93 | 8 (≈ 20.6 µM) | 8 (≈ 20.6 µM) | 8 (≈ 20.6 µM) | 8 (≈ 20.6 µM) | 

Row | SMILES | IC50 [1] [nM] | MIC80 (Candida albicans [7]) [µg/mL] | MIC80 (Candida albicans [9]) [µg/mL] | MIC80 (Candida albicans [10]) [µg/mL] | MIC80 (Candida albicans [11]) [µg/mL] | other results
25 | CC(C)c1ccc(-n2[se]c3ccccc3c2=O)cc1 | 110 | 4 (≈ 12.6 µM) | 4 (≈ 12.6 µM) | 2 (≈ 6.32 µM) | 2 (≈ 6.32 µM) | IC50 [13]: > 32 µM
26 | O=c1c2ccccc2[se]n1-c1ccc(F)cc1F | 84 | 4 (≈ 12.9 µM) | 4 (≈ 12.9 µM) | 4 (≈ 12.9 µM) | 2 (≈ 6.45 µM) | IC50 [13]: > 32 µM
27 | O=C(C(=O)n1sc2ccccc2c1=O)c1ccccc1 | 15700 |  |  |  |  | 
28 | O=c1c2ccccc2[se]n1-c1ccccn1 | 72.7 | 4 (≈ 14.5 µM) | 2 (≈ 7.27 µM) | 4 (≈ 14.5 µM) | 4 (≈ 14.5 µM) | 
29 | CC(=O)c1ccc(-n2[se]c3ccccc3c2=O)cc1 | 17.3 | 16 (≈ 50.6 µM) | 16 (≈ 50.6 µM) | 8 (≈ 25.3 µM) | 8 (≈ 25.3 µM) | 
30 | O=c1c2ccccc2sn1-c1ccccc1 | 242 |  |  |  |  | IC50 [13]: > 32 µM
31 | O=c1c2ccccc2[se]n1-c1ccc(Cl)cc1Cl | 76 | 4 (≈ 11.7 µM) | 4 (≈ 11.7 µM) | 2 (≈ 5.83 µM) | 2 (≈ 5.83 µM) | IC50 [13]: > 32 µM
32 | O=c1c2ccccc2[se]n1Cc1ccccc1 | 118 | 2 (≈ 6.94 µM) | 4 (≈ 13.9 µM) | 4 (≈ 13.9 µM) | 4 (≈ 13.9 µM) | 
33 | O=c1c2ccccc2[se]n1Nc1ccccc1 | 96.3 |  |  |  |  | 
34 | CC(C)C[C@H](NC(=O)[C@H](Cc1ccccc1)NC(=O)c1cnccn1)B(O)O |  |  |  |  |  | inhibition (Candida albicans [6]): -0.52%
35 | O=c1c2ccccc2[se]n1-c1nccs1 | 113 | 4 (≈ 14.2 µM) | 4 (≈ 14.2 µM) | 8 (≈ 28.4 µM) | 8 (≈ 28.4 µM) | 
36 | O=C(NCc1ccccc1)n1[se]c2ccccc2c1=O | 97.3 | 16 (≈ 48.3 µM) | 16 (≈ 48.3 µM) | 8 (≈ 24.2 µM) | 8 (≈ 24.2 µM) | 
37 | Cc1ccc(-n2[se]c3ccccc3c2=O)cc1 | 13.3 | 4 (≈ 13.9 µM) | 4 (≈ 13.9 µM) | 2 (≈ 6.94 µM) | 2 (≈ 6.94 µM) | IC50 [13]: > 32 µM
38 | O=c1c2ccccc2[se]n1CCc1ccccc1 | 22.5 | 4 (≈ 13.2 µM) | 4 (≈ 13.2 µM) | 4 (≈ 13.2 µM) | 2 (≈ 6.62 µM) | 
39 | O=C(NCc1ccccc1)N1Cc2ccccc2C1=O | > 100000 | > 64 | > 64 | > 64 | > 64 | inhibition (Candida albicans [17]): < 50%
40 | O=C(O)CCCCC1CCSS1 (centres undefined) |  |  |  |  |  | inhibition (Candida albicans [6]): 80%
41 | O=c1c2ccccc2[se]n1-c1cccc(C(F)(F)F)c1 | 84 | 4 (≈ 11.7 µM) | 2 (≈ 5.84 µM) | 4 (≈ 11.7 µM) | 4 (≈ 11.7 µM) | IC50 [13]: > 32 µM
42 | O=C1c2ccccc2CN1Cc1ccccc1 | > 100000 | > 64 | > 64 | > 64 | > 64 | inhibition (Candida albicans [17]): < 50%
43 | N#Cc1ccc(-n2[se]c3ccccc3c2=O)cc1 | 38.9 | 8 (≈ 26.7 µM) | 16 (≈ 53.5 µM) | 16 (≈ 53.5 µM) | 8 (≈ 26.7 µM) | 
44 | O=c1[nH]sc2ccccc12 | > 5000 |  |  |  |  | inhibition (Candida albicans [6]): < 50%
45 | OC(Cn1cncn1)(Cn1cncn1)c1ccc(F)cc1F [FLUCONAZOLE] |  | 0.25 (≈ 0.816 µM) | > 64 | > 64 | > 64 | Activity (Candida albicans [8]): Active; Activity (Candida albicans [12]): inactive
46 | NC(=O)c1ccc(-n2[se]c3ccccc3c2=O)cc1 | 85 | 64 (≈ 202 µM) | 64 (≈ 202 µM) | 64 (≈ 202 µM) | 64 (≈ 202 µM) | 
47 | O=C(Cc1ccccc1)n1sc2ccccc2c1=O | 488 |  |  |  |  | 
